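All cell lines were grown in 96-well plates and treated with compound for 48 hours. The concentration for 50% growth inhibition is given as GI50. At the TGI there is no net growth.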
How the values were obtained:
Assay in all cases: NCI tumour cell line growth inhibition, 48 h
A549 NSCLC = test system: A549 NSCLC
NCI-H23 lung = test system: NCI-H23 lung
OVCAR-3 ovarian = test system: OVCAR-3 ovarian
OVCAR-4 ovarian = test system: OVCAR-4 ovarian
SF-295 CNS = test system: SF-295 CNS
SF-539 CNS = test system: SF-539 CNS
SK-MEL-28 melanoma = test system: SK-MEL-28 melanoma
SW-620 colon = test system: SW-620 colon
UACC-257 melanoma = test system: UACC-257 melanoma
UACC-62 melanoma = test system: UACC-62 melanoma

For N.N.N.O=[N+]([O-])[O-].O=[N+]([O-])[O-].O=[N+]([O-])[O-].O=[N+]([O-])[O-].[Co+3], the TGI (A549 NSCLC) was greater than 100 µM, the TGI (NCI-H23 lung) was greater than 100 µM and the TGI (OVCAR-3 ovarian) was greater than 100 µM. The TGI (OVCAR-4 ovarian) was greater than 100 µM, the TGI (SF-295 CNS) was greater than 100 µM and the TGI (SF-539 CNS) was greater than 100 µM. For the same compound, the TGI (SK-MEL-28 melanoma) was greater than 100 µM, the TGI (SW-620 colon) was greater than 100 µM and the TGI (UACC-257 melanoma) was greater than 100 µM. The TGI (UACC-62 melanoma) was greater than 100 µM.

In the case of COC(=O)C1C(C(=O)OC)N(Cc2ccccc2)C(=O)N1Cc1ccccc1 (stereo not given), the TGI (A549 NSCLC) is reported as greater than 100 µM, the TGI (NCI-H23 lung) is reported as greater than 100 µM and the TGI (OVCAR-3 ovarian) is reported as greater than 100 µM. For the same compound, the TGI (OVCAR-4 ovarian) was greater than 100 µM, the TGI (SF-295 CNS) was greater than 100 µM and the TGI (SF-539 CNS) was greater than 100 µM. The TGI (SK-MEL-28 melanoma) was greater than 100 µM, the TGI (SW-620 colon) was greater than 100 µM and the TGI (UACC-257 melanoma) was greater than 100 µM. The TGI (UACC-62 melanoma) was greater than 100 µM.

In the case of CCOC(=O)c1csc(NC(=O)CCN(CC)CC)n1, the TGI (A549 NSCLC) is reported as greater than 100 µM, the TGI (NCI-H23 lung) is reported as greater than 100 µM and the TGI (OVCAR-3 ovarian) is reported as 69 µM. The TGI (OVCAR-4 ovarian) was greater than 100 µM, the TGI (SF-295 CNS) was greater than 100 µM and the TGI (SF-539 CNS) was 56.8 µM. The TGI (SK-MEL-28 melanoma) was 62 µM, the TGI (SW-620 colon) was 92.8 µM and the TGI (UACC-257 melanoma) was greater than 100 µM. For the same compound, the TGI (UACC-62 melanoma) was greater than 100 µM.

Compound C#CCCCCC#Cc1ccccc1C(=O)OC has a TGI (A549 NSCLC) greater than 100 µM, a TGI (NCI-H23 lung) greater than 100 µM and a TGI (OVCAR-3 ovarian) greater than 100 µM. For the same compound, the TGI (OVCAR-4 ovarian) was greater than 100 µM, the TGI (SF-295 CNS) was greater than 100 µM and the TGI (SF-539 CNS) was greater than 100 µM. It also gave a TGI (SK-MEL-28 melanoma) greater than 100 µM, a TGI (SW-620 colon) of 46.1 µM and a TGI (UACC-257 melanoma) greater than 100 µM. For the same compound, the TGI (UACC-62 melanoma) was 94.7 µM.

CCCc1cc(=O)c2c(C)c3[nH]c4ccc(Cl)cc4c3c(C)c2[nH]1 showed a TGI (A549 NSCLC) of 4.81 µM, a TGI (NCI-H23 lung) of 10.5 µM and a TGI (OVCAR-4 ovarian) of 3.43 µM. It also gave a TGI (SF-295 CNS) of 3.96 µM, a TGI (SF-539 CNS) of 3.56 µM and a TGI (SK-MEL-28 melanoma) of 3.14 µM. It also gave a TGI (SW-620 colon) of 4.29 µM and a TGI (UACC-257 melanoma) of 4.74 µM.

O=C(O)CC/C(=N\Nc1nsc2ccccc12)c1ccccc1 was tested, and the TGI (A549 NSCLC) was greater than 100 µM, the TGI (NCI-H23 lung) was 95.8 µM and the TGI (OVCAR-3 ovarian) was 75.3 µM. The TGI (OVCAR-4 ovarian) was greater than 100 µM, the TGI (SF-539 CNS) was greater than 100 µM and the TGI (SK-MEL-28 melanoma) was greater than 100 µM. For the same compound, the TGI (SW-620 colon) was greater than 100 µM, the TGI (UACC-257 melanoma) was greater than 100 µM and the TGI (UACC-62 melanoma) was greater than 100 µM.

Work on C=C(C(=O)C(=O)Oc1ccc(Cl)cc1)C(=O)c1ccc(C)cc1 yielded a TGI (A549 NSCLC) greater than 100 µM, a TGI (NCI-H23 lung) greater than 100 µM and a TGI (OVCAR-3 ovarian) greater than 100 µM. It also gave a TGI (OVCAR-4 ovarian) greater than 100 µM, a TGI (SF-295 CNS) greater than 100 µM and a TGI (SF-539 CNS) of 34.7 µM. It also gave a TGI (SK-MEL-28 melanoma) greater than 100 µM, a TGI (SW-620 colon) of 36.4 µM and a TGI (UACC-257 melanoma) greater than 100 µM. For the same compound, the TGI (UACC-62 melanoma) was greater than 100 µM.

In the case of C/C(CCOC1CCCCO1)=C(\C)[Si](C)(C)C (stereo not given), the TGI (A549 NSCLC) is reported as greater than 100 µM, the TGI (NCI-H23 lung) is reported as greater than 100 µM and the TGI (OVCAR-3 ovarian) is reported as greater than 100 µM. It also gave a TGI (SF-295 CNS) greater than 100 µM, a TGI (SF-539 CNS) greater than 100 µM and a TGI (SK-MEL-28 melanoma) greater than 100 µM. For the same compound, the TGI (SW-620 colon) was greater than 100 µM, the TGI (UACC-257 melanoma) was greater than 100 µM and the TGI (UACC-62 melanoma) was greater than 100 µM.

In the case of CC(C)OP(=O)(OC(C)C)c1c(Nc2ccccc2)n[nH]c1N, the TGI (A549 NSCLC) is reported as greater than 100 µM, the TGI (NCI-H23 lung) is reported as greater than 100 µM and the TGI (OVCAR-3 ovarian) is reported as greater than 100 µM. It also gave a TGI (OVCAR-4 ovarian) greater than 100 µM, a TGI (SF-295 CNS) greater than 100 µM and a TGI (SF-539 CNS) greater than 100 µM. The TGI (SK-MEL-28 melanoma) was greater than 100 µM, the TGI (SW-620 colon) was greater than 100 µM and the TGI (UACC-257 melanoma) was greater than 100 µM. The TGI (UACC-62 melanoma) was greater than 100 µM.

In the case of O=C1C(Cl)=C(N2CCN(C3=C(Cl)C(=O)c4ccccc4C3=O)CC2)C(=O)c2ccccc21, the TGI (A549 NSCLC) is reported as 28.1 µM, the TGI (NCI-H23 lung) is reported as 3.11 µM and the TGI (OVCAR-3 ovarian) is reported as 3.02 µM. For the same compound, the TGI (OVCAR-4 ovarian) was 2.94 µM, the TGI (SF-295 CNS) was 21.5 µM and the TGI (SF-539 CNS) was 3.15 µM. For the same compound, the TGI (SK-MEL-28 melanoma) was 3.48 µM, the TGI (SW-620 colon) was 2.68 µM and the TGI (UACC-257 melanoma) was 2.78 µM. The TGI (UACC-62 melanoma) was 3.29 µM.

In the case of COCCOCOc1ccc(OCc2ccccc2)cc1, the TGI (A549 NSCLC) is reported as greater than 100 µM, the TGI (NCI-H23 lung) is reported as greater than 100 µM and the TGI (OVCAR-3 ovarian) is reported as greater than 100 µM. The TGI (OVCAR-4 ovarian) was greater than 51 µM, the TGI (SF-295 CNS) was greater than 100 µM and the TGI (SF-539 CNS) was greater than 100 µM. It also gave a TGI (SK-MEL-28 melanoma) greater than 100 µM, a TGI (SW-620 colon) greater than 100 µM and a TGI (UACC-257 melanoma) greater than 100 µM. For the same compound, the TGI (UACC-62 melanoma) was greater than 100 µM.

In the case of CCN1c2ccccc2-n2c(C)nnc2-c2c1n[nH]c2-c1ccccc1, the TGI (A549 NSCLC) is reported as greater than 100 µM, the TGI (NCI-H23 lung) is reported as greater than 100 µM and the TGI (OVCAR-3 ovarian) is reported as greater than 100 µM. For the same compound, the TGI (OVCAR-4 ovarian) was greater than 100 µM, the TGI (SF-295 CNS) was greater than 100 µM and the TGI (SF-539 CNS) was greater than 100 µM. For the same compound, the TGI (SK-MEL-28 melanoma) was greater than 100 µM, the TGI (SW-620 colon) was greater than 100 µM and the TGI (UACC-257 melanoma) was greater than 100 µM. For the same compound, the TGI (UACC-62 melanoma) was 98.9 µM.

Work on CN(C)CCCOc1nc2c(c(=O)n(C)c(=O)n2C)n1C (tested in a mixture with another compound) yielded a TGI (A549 NSCLC) greater than 100 µM, a TGI (NCI-H23 lung) of 97.6 µM and a TGI (OVCAR-3 ovarian) greater than 100 µM. For the same compound, the TGI (OVCAR-4 ovarian) was greater than 100 µM, the TGI (SF-295 CNS) was greater than 100 µM and the TGI (SF-539 CNS) was 58.3 µM. It also gave a TGI (SK-MEL-28 melanoma) greater than 100 µM, a TGI (SW-620 colon) greater than 100 µM and a TGI (UACC-257 melanoma) greater than 100 µM. The TGI (UACC-62 melanoma) was 6.42 µM.

Compound CC1=C(O)C(=O)[C@@H]2O[C@@H]2C1=O has a TGI (A549 NSCLC) of 99 µM, a TGI (NCI-H23 lung) of 35.8 µM and a TGI (OVCAR-3 ovarian) of 17.4 µM. The TGI (OVCAR-4 ovarian) was 28.5 µM, the TGI (SF-295 CNS) was 72.1 µM and the TGI (SF-539 CNS) was 41.9 µM. It also gave a TGI (SK-MEL-28 melanoma) of 16.7 µM, a TGI (SW-620 colon) of 13.4 µM and a TGI (UACC-257 melanoma) of 23.9 µM. The TGI (UACC-62 melanoma) was 21.7 µM.

With C=CCN1C(=O)/C(=C/c2ccccc2)N=C1SC1OC(COC(=O)c2ccccc2)C(OC(=O)c2ccccc2)C1OC(=O)c1ccccc1 (stereo not given) the TGI (NCI-H23 lung) was greater than 100 µM, the TGI (OVCAR-3 ovarian) was greater than 100 µM and the TGI (OVCAR-4 ovarian) was greater than 100 µM. It also gave a TGI (SF-295 CNS) greater than 100 µM, a TGI (SF-539 CNS) greater than 100 µM and a TGI (SK-MEL-28 melanoma) greater than 100 µM. It also gave a TGI (SW-620 colon) greater than 100 µM, a TGI (UACC-257 melanoma) greater than 100 µM and a TGI (UACC-62 melanoma) greater than 100 µM.

Work on COc1ccc2[nH]c(O)c(/C=c3/cc4c(c(-c5cc(OC)c(OC)c(OC)c5)n3)=Nc3ccccc3-4)c2c1 yielded a GI50 (A549 NSCLC) of 8.66 µM, a TGI (A549 NSCLC) greater than 100 µM and a GI50 (NCI-H23 lung) of 5.28 µM. For the same compound, the TGI (NCI-H23 lung) was greater than 100 µM, the GI50 (OVCAR-3 ovarian) was 8.48 µM and the TGI (OVCAR-3 ovarian) was greater than 100 µM. It also gave a GI50 (OVCAR-4 ovarian) of 4.41 µM, a TGI (OVCAR-4 ovarian) greater than 100 µM and a GI50 (SF-295 CNS) of 8.97 µM. It also gave a TGI (SF-295 CNS) greater than 100 µM, a GI50 (SF-539 CNS) of 22.6 µM and a TGI (SF-539 CNS) greater than 100 µM. It also gave a GI50 (SK-MEL-28 melanoma) of 26 µM, a TGI (SK-MEL-28 melanoma) greater than 100 µM and a GI50 (SW-620 colon) of 4.96 µM. The TGI (SW-620 colon) was greater than 100 µM, the GI50 (UACC-257 melanoma) was 29.7 µM and the TGI (UACC-257 melanoma) was greater than 100 µM. For the same compound, the GI50 (UACC-62 melanoma) was 13.6 µM and the TGI (UACC-62 melanoma) was greater than 100 µM.

Reference: PubChem BioAssay (NCI)
